In patent publication US20090156609A1, “TREATMENT OF POST-TRAUMATIC STRESS DISORDER WITH TETRAHYDROINDOLONE ARYLPIPERZAINE COMPOUNDS” (priority 2007, published 2009):
Where two headings read alike, the source gives them in different places.

Columns and labels:
mice = assay: Spontaneous Activity model (locomotor activity); format: in vivo; conditions: models unwanted side effects
Excerpt: Ambulatory and non-ambulatory activity can be used to test spontaneous and drug-induced motor activity. The test can be used to profile the potential for a drug to induce hyperactivity or sedation.
In this model, Kinder Scientific photobeam activity monitors are used to record the ambulatory and non-ambulatory motor activity. The monitors track the photobeam breaks made by the animal that are used to calculate the number of ambulatory and fine (non-ambulatory) motor movements. A drug-induced increase in activity can indicate the potential for an adverse event such as hyperactivity. A drug-induced decrease in response can indicate the potential for an adverse event such as sedation. Doses at which no significant change in activity are recorded, and more preferably at which no change in activity are recorded, can be selected for further evaluation.
(§1) The present compounds were tested in the conditioned avoidance response (CAR) model and in the Spontaneous Activity model described above.

C-57 mice = assay: Conditioned avoidance response (CAR) model; format: in vivo; conditions: models unwanted side effects
Excerpt: The Condition Avoidance Responding (CAR, active avoidance) model is a measure of cognitive and attention impairment. It evaluates the disruption of avoidance (increased latency) without disruption of escape (extrapyramidal motor function).
The training of C-57 mice consists of 20 trials with variable inter-trial intervals (trained to 80% Avoidance Criteria). After a one-minute acclimation period, the house light and an acoustic 90 decibel tone (conditioned stimuli) are presented. A response (crossing to dark compartment) within 5 seconds ends the trial and trial is recorded as avoidance response (CAR). […] To avoid shock, animals learn to move from the lighted side of the − chamber to the dark side when the cue is presented (avoidance) or moved when the shock is administered (escape). Compounds that disrupt cognition in the CAR model can be excluded from candidate consideration.
as §1

Male C57 mice = assay: PCP-induced disruption of prepulse inhibition (PPI) of the startle response; format: in vivo; conditions: for minimal effective dose: Mus musculus, 20 minutes prior to PCP 5 mg/kg IP, read-out: Effective Dose, Prepulse Inhibition Testing; for minimum effective dose, Prepulse Inhibition (PPI): reversal of PCP-induced disruption, route not given
Excerpt: The phencyclidine (PCP)-induced disruption of pre-pulse inhibition (PPI) has been used to predict efficacy in cognitive impairment and other disorders. In this test, a weaker auditory prestimulus (prepulse) inhibits the reaction of an test organism to a subsequent strong startle stimulus (pulse). Normal PPI functioning in mammals is critical in filtering out irrelevant sensory information, an inhibitory process that is affected in patients with PTSD. A reduction of the cognitive/attention impairment produced in the PPI model can be used as an efficacy measure for compound candidate selection.
For testing of PPI, male C57 mice can be assigned to five dose groups of eight animals per group, and vehicle or test compound can then be administered orally (PO) or subcutaneously (SC) 20 minutes prior to intraperitoneal (IP) administration of vehicle or PCP (5 mg/kg). Ten minutes following PCP administration, the mice are placed into Hamilton-Kinder startle chambers and evaluation of pre-pulse inhibition procedure is performed. Following a five-minute acclimatization period with background white noise (65 decibels), mice were exposed to five different trial types. Trials were presented […] in a quasi-random order, with randomized 5 to 25 second inter-trial intervals. Trials were: stimulus only trial (120 decibel white noise, 50 ms stimulus); two different prepulse+pulse trials in which a 20 ms 5 decibel, or 10 decibel stimuli above a 65 decibel background preceded the 120 decibel pulse by 120 ms; a 10 decibel prepulse without a 120 decibel pulse; and a no stimulus trial, in which only the background noise was presented.
Compounds which are observed to reduce and/or reverse PCP-induced impairment can be selected as candidates for further evaluation. Such reduction is also indicative of memory enhancement, which is also a positive indicator for further development.
Male C57 mice were assigned to five dose groups of eight animals per group, and vehicle or a test compound was administered orally or subcutaneously 20 minutes prior to intraperitoneal administration of vehicle or PCP (5 mg/kg). Ten minutes following PCP administration, the mice were placed into Kinder Scientific startle chambers (Kinder Scientific, Poway, Calif.) and pre-pulse inhibition was evaluated. Following a five-minute acclimatization period with background white noise (65 dB), mice were exposed to five different trial types. Trials were presented in a quasi-random order, with randomized 5 to 25 second inter-trial intervals. The five different trials (presented 10 times each were): stimulus only trial (120 dB white noise, 50 ms stimulus); two different prepulse+pulse trials in which a 20 ms 5 dB or 10 dB stimulus above a 65 dB background preceded the 120 dB pulse by 120 ms; a 10 dB prepulse without a 120 dB pulse; and a no stimulus trial, in which only the background noise was presented.

patients = conditions: placebo 37 percent, cited from earlier work

Structure (SMILES) | minimum effective dose, Locomotor Activity (mice) [mg/kg] | minimum effective dose, Conditioned Avoidance Response (C-57 mice) [mg/kg] | minimal effective dose (Male C57 mice; sc, subcutaneous) [mg/kg] | minimum effective dose, Prepulse Inhibition (PPI) (Male C57 mice) [mg/kg] | minimal effective dose (Male C57 mice; oral) [mg/kg] | patients who responded positively (patients; 20 mg paroxetine) [%] | patients who responded positively (patients; 40 mg paroxetine) [%]
O=C1CCCc2c1ccn2CCCCN1CCN(c2ccc(F)cc2)CC1 [Compound B, 1-{4-[4-(4-Fluorophenyl)piperazin-1-yl]butyl}-1,5,6,7-tetrahydroindol-4-one] | 3 | >3 | 1 | 1 | – | – | –
O=C1CCCc2c1ccn2CCCCN1CCN(c2ccc(Br)cc2)CC1 [Compound C, 1-{4-[4-(4-Bromophenyl)piperazin-1-yl]butyl}-1,5,6,7-tetrahydroindol-4-one] | >10 | >10 | 3 | 3 | – | – | –
O=C1CCCc2c1ccn2CCCCN1CCN(c2cccc(C(F)(F)F)c2)CC1 [Compound D, 1-{4-[4-(3-Trifluoromethylphenyl)piperazin-1-yl]butyl}-1,5,6,7-tetrahydroindol-4-one] | 3 | 3 | 0.3 | 0.3 | 1 | – | –
O=C1CCCc2c1ccn2CCN1CCN(c2cccc(C(F)(F)F)c2)CC1 [Compound E, 1-{2-[4-(3-Trifluoromethylphenyl)piperazin-1-yl]ethyl}-1,5,6,7-tetrahydroindol-4-one] | >10 | >10 | – | 3 | – | – | –
O=C1CCCc2c1ccn2CCCN1CCN(c2cccc(Cl)c2)CC1 [Compound F, 1-{3-[4-(3-Chlorophenyl)piperazin-1-yl]propyl}-1,5,6,7-tetrahydroindol-4-one] | >3 | >10 | – | 3 | – | – | –
O=C1CCCc2c1ccn2CCCN1CCN(c2cccc(C(F)(F)F)c2)CC1 [Compound G, 1-{3-[4-(3-Trifluoromethylphenyl)piperazin-1-yl]propyl}-1,5,6,7-tetrahydroindol-4-one] | >10 | >10 | – | 3 | – | – | –
O=C1CCCc2c1ccn2CCCCN1CCN(c2ccc(Cl)c(Cl)c2)CC1 [Compound H, 1-{4-[4-(3,4-dichlorophenyl)piperazin-1-yl]butyl}-1,5,6,7-tetrahydroindol-4-one] | – | – | 1 | – | 6 | – | –
O=C1CCCc2c1ccn2CCCCN1CCN(c2ccc(F)c(Cl)c2)CC1 [Compound I, 1-{4-[4-(3-Chloro-4-fluorophenyl)piperazin-1-yl]butyl}-1,5,6,7-tetrahydroindol-4-one] | – | – | 1 | – | – | – | –
O=C1CCCc2c1ccn2CCCCN1CCN(c2ccc(Cl)cc2Cl)CC1 [Compound J, 1-{4-[4-(2,4-Dichlorophenyl)piperazin-1-yl]butyl}-1,5,6,7-tetrahydroindol-4-one] | – | – | 10 | – | – | – | –
O=C1CCCc2c1ccn2CCCN1CCN(c2ccc(Cl)c(Cl)c2)CC1 [Compound K, 1-{3-[4-(3,4-Dichlorophenyl)piperazin-1-yl]propyl}-1,5,6,7-tetrahydroindol-4-one] | – | – | 10 | – | – | – | –
Fc1ccc([C@@H]2CCNC[C@H]2COc2ccc3c(c2)OCO3)cc1 [paroxetine, Paroxetine] | – | – | – | – | – | 62 | 54
